Results: patent publication USRE39197E1, “Cell adhesion-inhibiting antiinflammatory and immune-suppressive compounds” (Abbott Laboratories, priority 1998, dated 2006)

How the values were obtained:
[1] = target: T1, interaction between the integrin LFA-1 and its adhesion partner ICAM-1 (Homo sapiens, UniProt P20701); experiment: ICAM-1/LFA-1 Biochemical Interaction Assay; assay type: binding; details: 4 μM compound; recombinant LFA-1, biotinylated ICAM-1/Ig
T1 construct: Recombinant LFA-1 (100 μL of 0.7 μg/ml mL, ICOS Corporation) in D-PBS; purchased ICOS Corporation
Protocol: Compounds that antagonize the interaction between ICAM-1 and LFA-1 can be identified, and their activities quantitated, using both biochemical and cell-based adhesion assays. A primary biochemical assay measures the ability of the compound in question to block the interaction between the integrin LFA-1 and its adhesion partner ICAM-1, as described below:
ICAM-1/LFA-1 Biochemical Interaction Assay
In the biochemical assay, 100 μL of anti-LFA-1 antibody (ICOS Corporation) at a concentration of 5 μg/ml mL in Dulbecco's phosphate-buffered saaline (D-PBS) is used to coat wells of a 96-well microtiter plate overnight at 4° C. The wells are were then washed twice with wash buffer (D-PBS w/o Ca^++ or Mg^++, 0.05% Tween 20) and blocked by addition of 200 μL of D-PBS, 5% fish skin gelatin. Recombinant LFA-1 (100 μL of 0.7 μg/ml mL, ICOS Corporation) in D-PBS is was then added to each well. Incubation continues continued for 1 hour at room temperature and the wells are were washed twice with wash buffer. Serial dilutions of compounds being assayed as ICAM-1/LFA-1 antagonists, were prepared as 10 mM stock solutions in dimethyl sulfoxide (DMSO), are were diluted in D-PBS, 2 mM MgCl2, 1% fish skin gelatin and 50 μL of each dilution was added to duplicate wells. This is was followed by the addition of 50 μL of 0.8 μg/ml mL biotinylated recombinant ICAM-1/Ig (ICOS Corporation) to the wells and the plates are were incubated at room temperature for 1 hour. The wells are were then washed twice with wash buffer and 100 μL of Europium-labeled Streptavidin (Wallac Oy) diluted 1:100 in Delfia assay buffer (Wallac Oy), are was then added to the wells. Incubation proceeds proceeded for 1 hour at room temperature. The wells are were washed eight times with wash buffer and 100 μL of enhancement solution (Wallac Oy, cat. No. 1244-105) are was added to each well. Incubation proceeds proceeded for 5 minutes with constant mixing. Time-resolved fluorimetry measurements are were made using the a Victor 1420 Multilabel Counter (Wallac Oy) and the percent inhibition of each candidate compound is was calculated using the following equation: [formula] where “background” refers to wells that are were not coated with anti-LFA-1 antibody.

[2] = system: adherence of JY-8 cells (expressing LFA-1) to immobilized ICAM-1; experiment: ICAM-1/JY-8 Cell Adhesion Assay; assay type: cell-based, human
Protocol: ICAM-1/JT-8 Cell Adhesion Assay
For measurment measurement of inhibotory inhibitory activity in the cell-based adhesion assay, 96-well microtiter plates are were coated with 70 μL of recombinat recombinant ICAM-1/Ig (ICOS Corporation) at a concentration of 5 μg/mL in D-PBS w/o without Ca^++ or Mg++ or Mg^++ overnight at 4° C. The wells are were then washed twice with D-PBS and blocked by addition of 200 μL of D-PBS, 5% fish skin gelatin by incubation for 1 hour at room temperature. […] The percent inhibition of a candidate compound at a given concentration is was calculated using the following equation: [formula] and these concentration/inhibition data are were used to generate does response curves, from which IC50 values are were derived.

[3] = JY-8 cells on immobilized ICAM-1/Ig
[4] = Homo sapiens, JY-8, JY-8 cells on immobilized ICAM-1/Ig

T1 sequence (P20701 26-1170): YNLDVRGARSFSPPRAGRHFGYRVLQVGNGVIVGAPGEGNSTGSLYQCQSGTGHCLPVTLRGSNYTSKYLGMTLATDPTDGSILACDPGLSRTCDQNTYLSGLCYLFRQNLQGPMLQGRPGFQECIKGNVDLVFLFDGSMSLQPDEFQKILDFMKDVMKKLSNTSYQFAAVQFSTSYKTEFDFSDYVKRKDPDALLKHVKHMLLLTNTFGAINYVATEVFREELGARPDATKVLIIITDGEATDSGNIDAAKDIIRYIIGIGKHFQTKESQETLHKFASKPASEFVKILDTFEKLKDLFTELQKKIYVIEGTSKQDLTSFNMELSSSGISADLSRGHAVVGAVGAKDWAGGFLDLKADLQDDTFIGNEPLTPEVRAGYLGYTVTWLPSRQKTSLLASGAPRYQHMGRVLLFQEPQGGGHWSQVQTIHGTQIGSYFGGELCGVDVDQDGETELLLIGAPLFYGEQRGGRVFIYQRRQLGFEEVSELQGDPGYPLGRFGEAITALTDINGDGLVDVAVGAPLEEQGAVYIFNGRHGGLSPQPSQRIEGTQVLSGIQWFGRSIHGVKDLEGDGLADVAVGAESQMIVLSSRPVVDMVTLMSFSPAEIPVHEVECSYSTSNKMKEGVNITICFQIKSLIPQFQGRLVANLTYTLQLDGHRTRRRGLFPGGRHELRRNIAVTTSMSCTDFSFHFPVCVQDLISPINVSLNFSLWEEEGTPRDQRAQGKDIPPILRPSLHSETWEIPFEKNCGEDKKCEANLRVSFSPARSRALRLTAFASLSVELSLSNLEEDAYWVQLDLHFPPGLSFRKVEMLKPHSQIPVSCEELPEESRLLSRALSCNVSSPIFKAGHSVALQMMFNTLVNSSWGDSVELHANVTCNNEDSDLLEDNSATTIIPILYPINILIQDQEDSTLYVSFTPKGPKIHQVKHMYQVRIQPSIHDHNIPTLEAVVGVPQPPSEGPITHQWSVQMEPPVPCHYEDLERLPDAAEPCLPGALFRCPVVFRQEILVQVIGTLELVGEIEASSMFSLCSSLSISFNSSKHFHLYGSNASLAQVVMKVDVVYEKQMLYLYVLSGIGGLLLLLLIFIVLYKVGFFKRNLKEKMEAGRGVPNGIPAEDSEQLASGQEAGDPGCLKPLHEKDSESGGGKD
T1 sequence (P05107 23-769 partner): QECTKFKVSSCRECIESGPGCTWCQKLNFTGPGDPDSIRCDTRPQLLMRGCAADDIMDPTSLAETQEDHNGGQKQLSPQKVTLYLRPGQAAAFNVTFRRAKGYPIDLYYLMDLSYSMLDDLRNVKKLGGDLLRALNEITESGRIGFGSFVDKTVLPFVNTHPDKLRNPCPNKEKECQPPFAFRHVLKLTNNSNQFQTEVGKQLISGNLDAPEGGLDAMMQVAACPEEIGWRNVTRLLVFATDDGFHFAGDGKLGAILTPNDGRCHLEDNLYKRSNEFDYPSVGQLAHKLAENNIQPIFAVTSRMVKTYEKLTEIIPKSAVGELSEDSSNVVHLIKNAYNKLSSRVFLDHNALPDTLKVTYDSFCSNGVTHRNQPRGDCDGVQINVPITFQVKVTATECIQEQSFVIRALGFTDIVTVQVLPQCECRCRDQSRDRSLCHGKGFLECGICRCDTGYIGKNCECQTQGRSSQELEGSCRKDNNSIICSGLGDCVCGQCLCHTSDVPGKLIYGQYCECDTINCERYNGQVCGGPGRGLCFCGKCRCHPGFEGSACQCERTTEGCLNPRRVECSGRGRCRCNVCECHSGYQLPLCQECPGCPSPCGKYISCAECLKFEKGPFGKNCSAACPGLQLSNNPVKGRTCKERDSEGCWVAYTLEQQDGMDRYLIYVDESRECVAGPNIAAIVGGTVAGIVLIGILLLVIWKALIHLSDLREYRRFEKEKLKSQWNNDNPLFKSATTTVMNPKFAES

Molecule | % inhibition @ 4 μM [1] [%] | IC50 [2, 3] [µM] | inhibition at 4 µM [1] [%] | IC50 [2, 4] [µM]
O=C(/C=C/c1ccccc1Sc1ccc(Cl)cc1Cl)NCCCCCCO [Example 1, (2,4-Dichlorophenyl)[2-(E-((6-hydroxyhexylamino)carbonyl)ethenyl)phenyl]sulfide] |  |  | 75 | 2.1
CC(=O)N1CCN(C(=O)/C=C/c2ccc(Sc3ccccc3N)c([N+](=O)[O-])c2)CC1 [Example 47, (2-Aminophenyl)[2-nitro-4-(E-((4-acetylpiperazin-1-yl)carbonyl)ethenyl)phenyl]sulfide] |  |  | 82 | 0.37
O=C(O)C1CCCN(C(=O)/C=C/c2ccc(Sc3ccc(Cl)cc3Cl)c(Cl)c2)C1 (stereo not shown) [Example 20, (2,4-Dichlorophenyl)[2-chloro-4-(E-((3-carboxypiperidin-1-yl)carbonyl)ethenyl)phenyl]sulfide] |  |  | 82 | 3.3
CC(C)(C)OC(=O)CN1CCN(C(=O)/C=C/c2ccc(Sc3ccc(Cl)cc3Cl)c([N+](=O)[O-])c2)CC1 [Example 42, (2,4-Dichlorophenyl)[2-nitro-4-(E-((4-(tert-butoxycarbonylmethyl)piperazin-1-yl)carbonyl)ethenyl)phenyl]sulfide] |  |  | 56 | 0.52
(2-Chlorophenyl)[2-chloro-4-(E-((4-acetylpiperazin-1-yl)carbonyl))2-propenyl)phenyl]sulfide [Example 52] | 86 | 0.42 |  | 
O=C(/C=C/c1ccc(Sc2ccc(Cl)cc2Cl)c(Cl)c1)NCCO [Example 3, (2,4-Dichlorophenyl)[2-chloro-4-(E-((2-hydroxyethylamino)carbonyl)ethenyl)phenyl]sulfide] |  |  | 75 | 2.5
O=C(/C=C/c1ccc(Sc2ccc(Cl)cc2Cl)c(Cl)c1)N(CCO)CCO [Example 5, (2,4-Dichlorophenyl)[2-chloro-4-(E-((bis-(2-hydroxyethyl)amino)carbonyl)ethenyl)phenyl]sulfide] |  |  | 73 | 2.9
CC(=O)N1CCCN(C(=O)/C=C/c2ccc(Sc3ccccc3Br)c(Cl)c2)CC1 [Example 22, (2-Bromophenyl)[2-chloro-4-(E-((4-acetylhomopiperazin-1-yl)carbonyl)ethenyl)phenyl]sulfide] |  |  | 90 | 0.2
O=C(/C=C/c1ccc(Sc2ccc(Cl)cc2Cl)c(Cl)c1)N1CCN(CCOCCO)CC1 [Example 14] | 82 | 0.79 |  | 
O=C(C(=O)N1CCN(C(=O)/C=C/c2ccc(Sc3ccc(Cl)cc3Cl)c([N+](=O)[O-])c2)CC1)c1ccco1 [Example 38, (2,4-Dichlorophenyl)[2-nitro-4-(E-((4-(2-furoylcarbonyl)piperazin-1-yl)carbonyl)ethenyl)phenyl]sulfide] |  |  | 91 | 0.25
O=C(/C=C/c1ccc(Sc2ccccc2CN2CCOCC2)c(Cl)c1)N1CCOCC1 [Example 53, (2-(1-Morpholinylmethyl)phenyl)[2-chloro-4-(E-((1-morpholinyl)carbonyl)ethenyl)phenyl]sulfide] |  | 0.7 |  | 
O=C(/C=C/c1ccc(Sc2ccc(Cl)cc2Cl)c(Cl)c1)N1CCN(CCO)CC1 [Example 13] | 79 | 1.1 |  | 
Cc1ccccc1Sc1ccc(/C=C/C(=O)NC2CC2)cc1C(F)(F)F [Example 31, (2-Methylphenyl)[2-trifluoromethyl-4-(E-((cyclopropylamino)carbonyl)ethenyl)phenyl]sulfide] |  |  | 92 | 
O=C(/C=C/c1ccc(Sc2ccc(Cl)cc2Cl)c(Br)c1)N1CCOCC1 [Example 64, (2,4-Dichlorophenyl)[2-bromo-4-(E-((1-morpholinyl)carbonyl)ethenyl)phenyl]sulfide] | 81 |  |  | 
O=CN1CCN(Cc2ccccc2Sc2ccc(/C=C/C(=O)N3CCOCC3)cc2Cl)CC1 [Example 58, (2-(4-Formylpiperazin-1-ylmethyl)phenyl)[2-chloro-4-(E-((1-morpholinyl)carbonyl)ethenyl)phenyl]sulfide] |  | 1.6 |  | 

Second part, the molecule after the results:

% inhibition @ 4 μM [1] [%] | IC50 [2, 3] [µM] | inhibition at 4 µM [1] [%] | IC50 [2, 4] [µM] | Molecule
80 | 8 |  |  | O=C(/C=C/c1ccc(Sc2ccccc2Br)c(Cl)c1)N1CCC(n2c(=O)[nH]c3ccccc32)CC1 [Example 24]
 |  | 90 | 0.28 | CCN(CC)C(=O)CN1CCN(C(=O)/C=C/c2ccc(Sc3ccc(Cl)cc3Cl)c([N+](=O)[O-])c2)CC1 [Example 40, (2,4-Dichlorophenyl)[2-nitro-4-(E-((4-(diethylaminocarbonylmethyl)piperazin-1-yl)carbonyl)ethenyl)phenyl]sulfide]
 |  | 78 | 0.07 | O=C(O)CN1CCN(C(=O)/C=C/c2ccc(Sc3ccc(Cl)cc3Cl)c([N+](=O)[O-])c2)CC1 [Example 44, (2,4-Dichlorophenyl)[2-nitro-4-(E-((4-(carboxymethyl)piperazin-1-yl)carbonyl)ethenyl)phenyl]sulfide]
87 | 0.37 |  |  | Cc1ccccc1Sc1ccc(/C=C/C(=O)NCCN2CCOCC2)cc1C(F)(F)F [Example 28, (2-Methylphenyl)[2-trifluoromethyl-4-(E-((2-(1-morpholinyl)ethylamino)carbonyl)ethenyl)phenyl]sulfide]
 |  | 86 | 1.2 | CC(=O)N1CCN(C(=O)/C=C/c2ccc(Sc3c(Cl)cccc3C=O)c(Cl)c2)CC1 [Example 65, (2-Chloro-6-formylphenyl)[2-chloro-4-(E-((4-acetylpiperazin-1-yl)carbonyl)ethenyl)phenyl]sulfide]
 |  | 80 | 0.52 | O=C(O)C1CCN(C(=O)/C=C/c2ccc(Sc3ccc(Cl)cc3Cl)c(Cl)c2)CC1 [Example 21, (2,4-Dichlorophenyl)[2-chloro-4-(E-((4-carboxypiperidin-1-yl)carbonyl)ethenyl)phenyl]sulfide]
 |  |  | 1.5 | O=C(/C=C/c1ccc(Sc2ccc(Cl)cc2Cl)c(Cl)c1)N1CCN(c2ccccn2)CC1 [Example 10, (2,4-Dichlorophenyl)[2-chloro-4-(E-((4-(2-pyridyl)piperazin-1-yl)carbonyl)ethenyl)phenyl]sulfide]
 |  |  | 13 | O=C(/C=C/c1ccccc1Sc1ccc(Cl)cc1Cl)NCCCn1ccnc1 [Example 2, (2,4-Dichlorophenyl)[2-(E-((3-(1-imidazolyl)propylamino)carbonyl)ethenyl)phenyl]sulfide]
 |  | 82 | 0.85 | O=C(/C=C/c1ccc(Sc2ccc(Cl)cc2Cl)c(Br)c1)NCCCN1CCCC1=O [Example 63, (2,4-Dichlorophenyl)[2-bromo-4-(E-((3-(2-oxopyrrolidin-1-yl)propylamino)carbonyl)ethenyl)phenyl]sulfide]
 |  |  | 0.68 | O=C(/C=C/c1ccc(Sc2ccc(Cl)cc2Cl)c(Cl)c1)NCCCCCCO [Example 4, (2,4-Dichlorophenyl)[2-chloro-4-(E-((6-hydroxyhexylamino)carbonyl)ethenyl)phenyl]sulfide]
88 | 0.54 |  |  | CN(C)N=Cc1ccccc1Sc1ccc(/C=C/C(=O)N2CCOCC2)cc1Cl [Example 61, (2-Formylphenyl)[2-chloro-4-(E-((1-morpholinyl)carbonyl)ethenyl)phenyl]sulfide, N,N-dimethyl hydrazone]
 |  |  | 0.3 | O=C(/C=C/c1ccc(Sc2ccc(Cl)cc2Cl)c([N+](=O)[O-])c1)NCCCN1CCCC1=O [Example 33, (2,4-Dichlorophenyl)[2-nitro-4-(E-((3-(2-oxopyrrolidin-1-yl)propylamino)carbonyl)ethenyl)phenyl]sulfide]
